Measured values as given in a melting point compilation (Tetko et al.; mined from patent text by program, amines drawn as free bases though some values may be those of a salt).

| melting point | Compound |
| --- | --- |
| 152 °C | CNC(=O)N1CCc2cc(S(=O)(=O)N(C)OC)ccc21 |
| 178 to 179 °C | O=C(O)Cc1cccc2c(C3CCCCC3)nccc12 |
| 267 to 269 °C | Cn1ncc(C(=O)N2CCOCC2)c1C(=O)Nc1ccn2nc(-c3cccnc3F)nc2c1 |
| 84 to 85 °C | O=C(Cc1ccccc1)c1ccc(Cl)c(Cl)c1 |
| 54 to 55 °C | O=C(Cn1nnnc1-c1ccccc1)OCCO |
| 186 to 188 °C | O=C(O)C(O)=CC(=O)c1cn(Cc2ccccc2)c(=O)n(Cc2ccccc2)c1=O |
| 83 to 83.5 °C | CC(N)c1ccccc1O (single isomer, unassigned; (+)) |
| 128 to 129 °C | C=CCNC(=O)CC(=O)C=Cc1ccccc1[N+](=O)[O-] |
| 170 to 171 °C | C#CCN(C(CCn1c(=O)[nH]cc(C(F)(F)F)c1=O)C(=O)NO)S(=O)(=O)c1ccc(Oc2ccccc2)cc1 (centres undefined) |
| 54.5 to 56 °C | CCCCc1ccc2nc(C(=O)OCC)cc(Cl)c2c1 |
| 88 to 90 °C | c1cc2sc(C3OCCO3)cc2s1 |
| 36 to 38 °C | CC1=C(C)C(=O)C(CCCCO)=C(C)C1=O |
| 170 to 172 °C | CC1NN2C=CC=NC2C1C#N (centres undefined) |
| 207 to 208 °C | O=C(Nc1cccnn1)N1CCN(c2cc(-c3ccccc3F)ncn2)CC1 |
| 211 to 214 °C | O=c1c(-c2cccc(F)c2)c(CNc2ncnc3[nH]cnc23)oc2ccccc12 |
| 207 to 208 °C | C[Si](C)(C)c1ccc2c(c1)cc(C(=O)Nc1ccc(N3CC(O)C3)nc1)n2Cc1cccc(F)c1 |
| 195 to 197 °C | CC(=O)SCC(Cc1ccccc1)C(=O)Nc1ccc(C(N)=O)cc1 (centres undefined) |
| 191 to 193 °C | CCOC(=O)c1cn(C2CC2)c2c(F)c(N3CC(OS(C)(=O)=O)C3)c(F)cc2c1=O |
| 202 to 205 °C | O=C(OCC(Cl)(Cl)Cl)N1CCC(C2c3cccc4c3N(CC4)c3ccccc3N2C(=O)OCC(Cl)(Cl)Cl)CC1 (centres undefined) |
| 75 °C | COCCNc1c([N+](=O)[O-])cc(C)cc1[N+](=O)[O-] |
| 195 to 197 °C | COc1cc2cnnc(Cl)c2cc1OC |

| melting point | Compound |
| --- | --- |
| 75 to 76 °C | COc1cc2c(cc1C=O)C(C)(C)CO2 |
| 112 to 115 °C | CNC(=O)N(C)C(=O)Nc1ccccn1 |
| 115 to 117 °C | COC(=O)c1n[nH]cc1[N+](=O)[O-] |
| 180 to 183 °C | CS(=O)(=O)Nc1ccc(OCC2CCNCC2)cc1 |
| 179 to 180 °C | NC(=O)N1C(=O)Cc2ccccc21 |
| 57 °C | CCCCCCCCCCCCCCCCCC(=O)Oc1cccc(C(=O)OCC)c1 |
| 85 °C | CCOC(=O)N1CCC(c2cc3cc(OC)cc(Br)c3o2)CC1 |
| 201 to 203 °C | CC(=O)OC12Oc3cc(C(C)C)ccc3C1(OC(C)=O)C(=O)c1c(N)cccc12 (centres undefined) |
| 141 to 145 °C | OCCCNc1cc(-c2ccnc(Nc3cccc(OC(F)(F)C(F)F)c3)n2)ccn1 |
| 169 to 171 °C | CN(C)C=NS(=O)(=O)c1cc2ccncc2s1 |
| 158 to 160 °C | CC(C)n1c(=O)n(C)c(=O)c2cn(C3Cc4ccccc4C3)cc21 |
| 234 to 235 °C | CCNC(=O)N1CCc2cc(S(=O)(=O)n3cc(-c4ccccc4)[nH]c3=O)ccc21 |
| 98 to 99 °C | N#CC(C#N)C(=O)c1ccoc1 |
| 246 to 247 °C | CCOC(=O)c1c(-c2ccccc2)n(-c2ccc(OC)cc2)c2ccccc2c1=O |
| 299 to 301 °C | Cc1c(C(=O)O)oc2c(c1=O)CSc1ccccc1-2 |
| 112 to 114 °C | CCOc1ccc2c(c1)C(=O)OC2C(Cl)(Cl)Cl (centres undefined) |
| 109 to 112 °C | OCCNC(=S)NC(Cc1cccs1)c1ccccc1 (centres undefined) |
| 247 to 248 °C | OCc1c[nH]c(=S)n1[C@H]1CCc2cc(Cl)c(Cl)cc2C1 |
| 189 to 190 °C | Cc1ccc2ncn([C@H](C)[C@](O)(Cn3cncn3)c3ccc(F)cc3F)c(=O)c2c1 |
| 162 to 164 °C | Cc1ccc(C2=NNC(=O)C3CC23)cc1 (centres undefined) |
| 186 to 188 °C | COc1ccc2c(c1)CC(=O)c1cc(C(C)C(N)=O)ccc1S2 (centres undefined) |

The next lines start with the molecule.

| Compound | melting point |
| --- | --- |
| O=C1N(c2ccc(Br)cc2)C(Cl)(Cl)C2CCCCC12Cl (centres undefined) | 148 to 150 °C |
| C#CCc1c(C)nc2c(OCc3ccccc3C)cccn12 | 138 to 140 °C |
| CC(C)(C)OC(=O)CN(C(=O)CN(C(=O)CN1C(=O)c2ccccc2C1=O)c1ccccc1)c1ccccc1 | 80 °C |
| CN1CCC(=O)N(c2ccc(Cl)cc2Cl)C1=O | 122 to 125 °C |
| CC(CC#N)C(C#N)(c1cccc(C(F)(F)F)c1)N1CCOCC1 (centres undefined) | 115 to 118 °C |
| CCOC(=O)C(Cc1ccccc1)NC(=O)N(N(CCCl)S(C)(=O)=O)S(C)(=O)=O (centres undefined) | 106 to 107 °C |
| NS(=O)(=O)c1ccc(-c2[nH]c3ccccc3c2-c2ccc(Cl)cc2)cc1 | 298 to 300 °C |
| CC1(C)OC[C@H](Cc2ccccc2)N1C(=O)C(=O)c1ccn(-c2ccc(-c3ccccc3)cc2)c1 | 150 to 152 °C |
| CC(=O)OCc1c(Br)cnc2c(NC(=O)c3c(Cl)cccc3Cl)cccc12 | 201 to 202 °C |
| O=Cc1ccc2c(c1)CCC2 | 85 to 86 °C |
| COc1ccc2c(-c3cc(F)ccc3F)noc2c1 | 121 to 122 °C |
| O=C1CCCCC1c1cncc(Br)c1 (centres undefined) | 67 to 69 °C |
| NC(=O)c1cn(CCO)nc1[N+](=O)[O-] | 148 to 150 °C |
| C=C1C[C@@H]2[C@H](CC[C@]3(C)C(=O)CC[C@@H]23)[C@@]2(C)CCC(=O)C=C12 | 155 to 160 °C |
| COC(=O)c1c(N)cccc1[N+](=O)[O-] | 105 to 107 °C |
| O=C(NO)C(CC(=O)N1CCOCC1)NS(=O)(=O)c1ccc(-c2ccc(Cl)cc2)cc1 (centres undefined) | 139 to 141 °C |

| Compound | melting point |
| --- | --- |
| Cc1nn(-c2cc(Oc3ccc([N+](=O)[O-])cc3)c(Cl)cc2F)c(=O)n1C(F)F | 115 to 117 °C |
| Cc1cc(-c2nncc3c(C(C)(C)C)c(OCc4ncn(C)n4)nn23)no1 | 161 to 164 °C |
| Oc1ccc2nc(-c3cccc(Cl)c3)oc2c1 | 246 to 248 °C |
| [N-]=[N+]=NCCCn1cnc(-c2ccc(F)cc2)c1-c1ccncc1 | 64 to 65 °C |
| CC(C(O)c1ccc(OCc2ccccc2)c(OCc2ccccc2)c1)N1CCC(n2c(=O)[nH]c3ccccc32)CC1 (centres undefined) | 146 to 148 °C |
| C=CCON=C(C(=O)O)C1=CSCCO1 | 119 to 121 °C |
| O=c1c2cc(F)c(F)cc2nc(CSc2ncnc3[nH]cnc23)n1-c1ccccc1Cl | 208 °C |
| CCOC(=O)NC(C)CCC1(O)c2ccccc2CCc2c(C)cccc21 (centres undefined) | 132 to 134 °C |
| COc1cc2c(cc1N1CCN(CC3=CC4=CSCC4=C3)CC1)OCC2 | 156 to 158 °C |
| Clc1ccc([Si](Cl)(Cl)Cl)cc1 | 60 to 61 °C |
| O=c1nc(-c2cccc(-c3ccco3)n2)sc2ccccc12 | 218 °C |
| O=C(O)CCNS(=O)(=O)c1ccc(N2CCC(c3ccccc3)CC2)cc1 | 145 to 147 °C |
| CNC(=O)[C@@H](NC(=O)[C@@H](CC(=O)OCc1ccccc1)n1ccc(-c2ccncc2)c1)C(C)(C)C | 130 to 133 °C |
| CC(=O)OCCc1c(C2=CCC(c3ccccc3)(N(C)C)CC2)[nH]c2ccccc12 (centres undefined) | 146 to 148 °C |
| O=C(Nc1ccccn1)C(CC1CCCC1)c1ccc([N+](=O)[O-])cc1 (centres undefined) | 110 to 115 °C |
| COC(=O)c1cncn1C1c2ccccc2C(F)(F)C1(C)C (centres undefined) | 96 to 97 °C |
